Measured values taken from US8916717B2, “Dioxaspiroketal derivatives, process for their preparation and uses thereof” (Consiglio Nazionale Delle Ricerche, priority 2006, dated 2014).
Where two headings read alike, the source gives them in different places.

Key:
[1] = test system: 60 haematological and epithelial human cancer cell lines of NCI panel; conditions: 60 human cancer cell lines, NCI panel (Uckun et al., 2000); cited from earlier work
[2] = test system: peripheral blood lymphocytes (PBL) from healthy donors; assay: Toxicity on not tumor healthy human cells, supravital propidium iodide method; format: cell-based; conditions: for % apoptotic / % necrotic / % viable: PBL, 48 hours
Method: […] After 24 and 48 hours of culture, treated lymphocytes have been analyzed using supravital propidium iodide method (PI).
IN short this system is based on the use of propidium iodide, a fluorescent marker for the cellular DNA that normally penetrates only into the fixed or permeable made cells. PI supravital method is based on the principle that supravital exposure to propidium (high concentration of propidium for some hours at 37° C.) of not previously permeable made cells identifies in the population apoptotic cells clearly distinguishing them from necrotic or viable ones. Cells labeled with 40 μg/ml of propidium iodide directly in culture plates, are incubated at 37° for 1 hour and 30 minutes and analyzed using the flow cytometer.

MCF-7 cells = assay: Cell proliferation and viability determination (trypan blue dye exclusion cell counts); format: cell-based, human; conditions: 1.25 μg/ml
Method: The study has been carried out using representative tumor cell lines with different histological origin: MCF-7 breast carcinoma (human), M14 (human) and B16 (murine) melanomas, H125 (human) pulmonary carcinoma, HT-29 (human) colon carcinoma, HL-60 (human) promyelocytic leukemia.
All cell lines have been cultured in RPMI-1640 (Hyclone Europe, Cramlington, UK) medium supplemented with 10% of heat inactivated (56° C., 30 minutes) bovine fetal serum (Hyclone Laboratories, Logan, Utah), 2 mM L-glutamine and antibiotics (Life Technologies Ltd., Paisley, Scotland) (complete medium, CM). Cells have been stored at 37° C. in humidified atmosphere with 5% CO2.
Cell suspensions (HL-60) have been harvested and counted. Plastic adherent cells, in semi-confluence condition, have been detached by a short exposure at 0.025% trypsin with 0.01% EDTA and counted.
All used tumor cells have been harvested, suspended in CM and seeded in 24-well plates at 10^5 cell concentration in a final volume of 2 ml/well. For adherent cells a pre-incubation for 18 hours has been carried out in order to promote the adhesion to plastic. […] The cell proliferation, viability and death have been determined by means of cell counts in trypan blue (dye exclusion test) using a hemocytometer.

telomerase = target: T1, telomerase (Homo sapiens, UniProt O14746); assay: Telomerasic activity (TeloTAGGG Telomerase PCR ELISA) in extracts of treated tumor cells; format: cell-based; conditions: 48 hours; for telomerase enzymatic activity: 1.25 μg/ml; for inhibition at 12.5 µg/mL / inhibition at 25 µg/mL: read-out: telomerase inhibition in comparison to control
T1 construct: endogenous in cells; host or cells: MCF-7, H-125 and M14 tumour cells
T1 sequence (O14746 whole entry): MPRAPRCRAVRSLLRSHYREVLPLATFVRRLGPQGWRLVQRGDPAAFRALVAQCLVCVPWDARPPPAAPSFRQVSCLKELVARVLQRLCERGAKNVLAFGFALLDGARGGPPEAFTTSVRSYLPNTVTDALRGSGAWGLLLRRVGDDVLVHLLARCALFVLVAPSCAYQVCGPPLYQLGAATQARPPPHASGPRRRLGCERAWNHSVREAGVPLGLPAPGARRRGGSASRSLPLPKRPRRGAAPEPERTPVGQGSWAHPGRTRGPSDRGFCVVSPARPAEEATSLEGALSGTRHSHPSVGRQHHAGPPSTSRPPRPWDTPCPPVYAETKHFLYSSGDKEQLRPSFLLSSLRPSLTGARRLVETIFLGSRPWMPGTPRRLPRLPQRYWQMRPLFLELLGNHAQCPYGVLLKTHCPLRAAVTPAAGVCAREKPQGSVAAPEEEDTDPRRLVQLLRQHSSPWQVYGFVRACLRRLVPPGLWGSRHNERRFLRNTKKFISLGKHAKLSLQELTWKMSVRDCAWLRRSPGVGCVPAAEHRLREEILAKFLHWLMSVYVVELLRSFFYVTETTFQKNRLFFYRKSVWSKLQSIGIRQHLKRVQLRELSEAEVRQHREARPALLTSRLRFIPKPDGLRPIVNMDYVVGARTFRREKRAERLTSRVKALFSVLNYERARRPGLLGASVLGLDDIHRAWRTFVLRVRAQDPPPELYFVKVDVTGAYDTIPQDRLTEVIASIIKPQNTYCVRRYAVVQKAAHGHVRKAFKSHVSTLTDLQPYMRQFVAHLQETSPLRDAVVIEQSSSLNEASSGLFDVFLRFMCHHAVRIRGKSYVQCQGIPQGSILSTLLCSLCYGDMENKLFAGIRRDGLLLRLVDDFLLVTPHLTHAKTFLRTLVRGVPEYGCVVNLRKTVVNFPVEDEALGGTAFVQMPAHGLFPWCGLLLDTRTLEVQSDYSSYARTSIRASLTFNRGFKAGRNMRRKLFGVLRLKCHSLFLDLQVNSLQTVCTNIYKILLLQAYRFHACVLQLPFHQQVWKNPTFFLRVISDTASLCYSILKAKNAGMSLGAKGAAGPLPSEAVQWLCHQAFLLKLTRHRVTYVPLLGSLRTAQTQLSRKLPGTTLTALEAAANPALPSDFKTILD
Method: Telomerasic activity was evaluated using TeloTAGGG Telomerase PCR ELISA kit, photometric enzymatic immunoassay from Roche (Mannheim, Germany). At time of the test, frozen pellet was lysed directly in the tests-tube using 80 μl of cold extraction buffer. Telomerase amplification was carried out by PCR (30 cycles, 94° C. 30 sec; 52° C. 30 sec; 72° C. 45 sec). Telomerasic activity was determined on the cell extracts according to the protocol recommended by the supplier. Sample absorbance (OD, optical density) was measured at 450 nm in a multi-well plate reader (SpectraCount, Pakard, Meriden, Conn., USA). In order to evaluate telomerasic activity, MCF-7, H-125 and M14 tumor cells were treated for 48 hours with serial doses of methyl-spirane (from 1.25 μg/ml to 50 μg/ml) as above described. Subsequently, the cells have been detached from culture plates by trypsinization, centrifuged, pelletized, and stored at −80° C. until the use.
As to telomerase, the cells have been exposed in vitro at 1.25, 12.5, 25, 50 μg/ml of methyl-spirane and evaluated for telomerasic activity (TLMA) using ELISA assay, 48 hours after the treatment. […] Particularly, in the FIG. 10, panels A-C, the effects at various concentrations (1.25, 12.5, 25, 50) of methyl-spirane on MCF-7, H-125 and M14 cell, lines after 48 hours of treatment are shown.

M14 cell line (melanoma) = assay: Cell apoptosis and necrosis by flow cytometry analysis; format: cell-based, human
Method: (§1) For apoptosis and cellular cycle analysis, control or various concentration MS treated cells have been removed from the culture by means of trypsinization, re-suspended in PBS, washed two times with cold PBS and fixed with 50% of acetone and methanol (1:4) in PBS at 4° C. Fixed cells then were washed in PBS and stained with propidium iodide 50 μg/ml (PI) in the presence of RNase A 100 KU/ml.
Samples have been analyzed using a FACScan cytometer and fluorescence propidium red signals have been registered on linear scale. Cell fluorescence has been analyzed using a FACScan flow cytometer (Becton Dickinson, USA) using a 488 nm emitting argon laser. Data have been analyzed electronically excluding detritus and cell aggregates. In the red fluorescence, that is proportional to the DNA cell content, the apoptotic cells are represented by hypodiploid peak (cells with DNA fractioned content), easy distinguishable from the healthy cell DNA diploid peak. The fraction of the apoptotic cells is calculated integrating the pre-G1 peak. […]
For the necrosis evaluation, an aliquot of not fixed cells (1×10^6) was incubated with 40 μg/ml PI for 1.5 hour at 37° C. The samples, directly in their coloring solution, have been then analyzed using FACScan flow. […] Apoptotic cells have been detected by FSC/PI dot plot as PI^dim peak, meanwhile P^− and PI^bright represent viable and necrotic cells, respectively.

[3] = test system: M14 malignant melanoma cells; assay: Cell cycle by flow cytometry analysis (propidium iodide); format: cell-based, human; conditions: M14, starting from 10 μg/ml dose, after 24 hours of treatment
Method: as §1
Samples have been analyzed using a FACScan cytometer and fluorescence propidium red signals have been registered on linear scale. Cell fluorescence has been analyzed using a FACScan flow cytometer (Becton Dickinson, USA) using a 488 nm emitting argon laser. Data have been analyzed electronically excluding detritus and cell aggregates. In the red fluorescence, that is proportional to the DNA cell content, the apoptotic cells are represented by hypodiploid peak (cells with DNA fractioned content), easy distinguishable from the healthy cell DNA diploid peak. The fraction of the apoptotic cells is calculated integrating the pre-G1 peak. This cell fraction is representative for those having a PI decreasing coloration, considered a marker of DNA fragmentation, phenomenon associated to cell death by apoptosis. The analysis of cell cycle distribution after 24, 48 and 72 hours of MS treatment has been carried out using ModFitLT software (Becton Dickinson Immunocytometry Systems).

Cδ protein kinase = Cδ protein kinase (Homo sapiens, UniProt Q05655); conditions: Watters et al., 1998; cited from earlier work
Sequence of Cδ protein kinase (Q05655 whole entry): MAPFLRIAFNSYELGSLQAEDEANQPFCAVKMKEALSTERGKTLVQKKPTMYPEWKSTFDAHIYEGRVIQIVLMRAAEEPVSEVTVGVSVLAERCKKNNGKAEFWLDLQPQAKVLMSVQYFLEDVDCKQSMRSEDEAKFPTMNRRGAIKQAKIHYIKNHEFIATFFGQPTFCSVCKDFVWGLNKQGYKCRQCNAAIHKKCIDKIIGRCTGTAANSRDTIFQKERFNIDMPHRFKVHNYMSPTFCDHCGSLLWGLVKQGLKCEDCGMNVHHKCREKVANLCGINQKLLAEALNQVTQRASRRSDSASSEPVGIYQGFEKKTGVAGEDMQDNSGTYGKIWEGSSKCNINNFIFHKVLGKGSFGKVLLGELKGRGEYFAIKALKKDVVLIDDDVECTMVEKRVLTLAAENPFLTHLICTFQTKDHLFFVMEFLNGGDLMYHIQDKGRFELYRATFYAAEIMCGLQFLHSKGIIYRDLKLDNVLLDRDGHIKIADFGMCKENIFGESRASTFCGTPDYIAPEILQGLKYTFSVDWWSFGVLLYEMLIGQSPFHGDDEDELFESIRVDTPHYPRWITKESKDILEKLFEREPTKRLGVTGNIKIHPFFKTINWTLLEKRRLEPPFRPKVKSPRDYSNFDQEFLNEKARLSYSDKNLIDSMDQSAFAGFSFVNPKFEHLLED

## spongistatin 1
[1]
  cytotoxicity IC50: sub-nanomolar

## CC1CCCC2(OC(O)C=CC2=O)O1 (centres unmarked) [methyl-spirane, 1,7-dioxaspiro[5,5]-8-methyl-undecen-3-en-5-oxa-2-ol]
[2]; 3.15 μg/ml
  % apoptotic: 2.5%
  % necrotic: 16%
  % viable: 81.5%
[2]; 6.25 μg/ml
  % apoptotic: 6.4%
  % necrotic: 15.6%
  % viable: 78%
[2]; 12.5 μg/ml
  % apoptotic: 30.1%
  % necrotic: 40.0%
  % viable: 29.7%
[2]; 25 μg/ml
  % apoptotic: 33.1%
  % necrotic: 56.6%
  % viable: 10.0%
[2]; 50 μg/ml
  % apoptotic: 21.7%
  % necrotic: 70.0%
  % viable: 8.2%
[2]; 100 μg/ml
  % apoptotic: 15.0%
  % necrotic: 84.0%
  % viable: 1.0%
[2]; low concentrations (for example, 1.25 μg/ml)
  necrosis with respect to the control on human lymphocytes: no increase of necrosis
MCF-7 cells
  effect on tumour cell growth in vitro: inhibiting effects
telomerase; H-125
  telomerase enzymatic activity: very scarcely influenced
telomerase; MCF-7
  telomerase enzymatic activity: very scarcely influenced
telomerase; 12.5 μg/ml, M14
  inhibition at 12.5 µg/mL: 61%
telomerase; 25 μg/ml, M14
  inhibition at 25 µg/mL: 75%
telomerase; 50 μg/ml, two cell lines not named (of MCF-7, H-125, M14)
  inhibition at 50 µg/mL: 80%
telomerase; 1.25, 12.5, 25, 50 μg/ml, all the examined cell lines
  telomerasic activity (TLMA): concentration-dependent reduction
telomerase; MCF7, 12.5 μg/ml, MCF-7
  inhibition at 12.5 µg/mL: 43%
telomerase; MCF7, 25 μg/ml, MCF-7
  inhibition at 25 µg/mL: 64%
telomerase; NCI-H125, 12.5 μg/ml, H-125
  inhibition at 12.5 µg/mL: 50%
telomerase; NCI-H125, 25 μg/ml, H-125
  inhibition at 25 µg/mL: 68%
M14 cell line (melanoma); M14, 25 μg/ml, after 24 hours
  apoptosis induction: apoptosis is already observed
M14 cell line (melanoma); M14, concentrations higher than 1.25 μg/ml, after 72 hours of treatment
  concentration-dependent increase of apoptosis: 30-50%
[3]
  effect on cell cycle (G1 step): increment of the G1 step

## C/C=C/C(=O)CC1CCC(C)C(CC(=O)NCC(O)C(C)C(=O)NCCCC2OC3(CCC2C)COCC(CCC(C)/C=C(\C)C(C)O)C3)O1 (centres unmarked) [B[…]]
Cδ protein kinase
  activation of Cδ protein kinase (PKCs isoform): specific activator
